{"source": "paper PMC5017749", "about": "“Preclinical Metabolism, Pharmacokinetics and In Vivo Analysis of New Blood-Brain-Barrier Penetrant Fingolimod Analogues: FTY720-C2 and FTY720-Mitoxy” (PLoS ONE, 2016)", "key": {"PP2A": {"test_system": "PP2A", "assay": "Protein phosphatase (PP2A) assay in adrenal glands of treated mice", "assay_type": "in vivo, male C57BL/6 mice", "details": "for increase of PP2A activity in mouse adrenal gland: as compared to untreated controls, route not given; for increase of PP2A activity in adrenal gland: up to 48 hr postdose, vs untreated control mice", "method": "The objectives of this study were to evaluate the pharmacokinetic profiles of FTY720-C2 and FTY720-Mitoxy following single oral and intravenous (IV) dosing of male mice and to determine blood and tissue levels of both compounds at various postdose time points. Male C57BL/6 mice were 8.4 weeks of age and weighed 20.6–24.8 g on the day of dose administration. Each animal was identified by a unique number via an ear tag with a matching cage tag. Mice were administered (two mice per time point) a single equivalent molar dose of either FTY720-C2 (1 mg/kg) or FTY720-Mitoxy (2 mg/kg) by oral or intravenous administration. As the molecular weight of FTY720-Mitoxy (704.72 g/mol) is ~ two times greater than that of FTY720-C2 (349.51 g/mol), the dose level of FTY720-Mitoxy was double that of FTY720-C2. Details of the design showing group assignments, dose groups, dose levels, as well as blood collection and necropsy time points are shown in Table 2. At the appropriate time points after dosing and blood sample collection for bioanalysis, animals were euthanized by CO2 inhalation until unresponsive, followed by decapitation. Brains were rapidly harvested, rinsed with ice cold saline, blotted dry and bisected along the mid-line. The left and right hemispheres of the brain were weighed separately. Each was placed in separate tubes, immediately flash frozen in liquid nitrogen and stored at -70°C prior to evaluation. All samples were labeled with the test facility study number, animal identification number, dose group, date, collection interval, and tissue identity (left or right brain hemisphere). Adrenal glands from each mouse were also collected and flash frozen.\nAdrenal glands from treated mice were homogenized in buffer containing 20 mM imidazole-HCl, 2 mM EDTA, 2 mM EGTA, plus protease inhibitors, at 4°C. The homogenates were centrifuged to remove particulates followed by free phosphate removal on MicrospinTM-G-25 columns (GE Healthcare). Aliquots of supernatants were incubated in 4-Nitrophenyl-phosphate (pNPP) buffer consisting of 50 mM Tris-HCl, pH 7.0, 0.1 mM CaCl2 with threonine-phosphopeptide (KRpTIRR) substrate. The reactions were run for 10 min at 30°C and stopped by placing samples on ice. Phosphate levels were determined by measuring absorbance at 650 nm using a Multiskan Spectrum plate reader (Thermo Scientific, Pittsburgh, PA) and were compared to freshly prepared standards as previously described, but using a malachite green solution prepared according to Fathi et al.. Samples from two mice per time point (n = 2) were assayed in triplicate to confirm technical fidelity."}, "[1]": {"assay": "Metabolite profiling and identification in rat hepatocytes", "assay_type": "in vitro ADME, rat (Sprague Dawley)", "design": "key to Source (peak identified in rat hepatocytes): R = Rat; hr = Human; lowercase letter indicates low abundance; h: lowercase letter indicates low abundance", "details": "for phosphorylated metabolites / parent peak after 2 hr incubation: rat hepatocytes; for parent peak after 2 hr incubation: 1 μM", "method": "Cryopreserved hepatocytes were grown in culture and incubations were performed to generate samples to measure the formation of FTY720-C2 and FTY720-Mitoxy metabolites. Incubations of 1 mL medium containing 1 million cells and 1 μM of FTY720-C2 and FTY720-Mitoxy were conducted at 37° C in a 5% CO2 incubator for 0, 1 and 2 hr, with gentle shaking. Positive control incubations used a cocktail solution containing 10 μM testosterone and 10 μM diclofenac performed for 0, 1 and 2 hr, under similar conditions to confirm the metabolic activity of the hepatocytes. The reactions were terminated by adding 2 mL acetonitrile containing 0.02% formic acid, and thoroughly mixing with gentle vortexing. Samples were transferred into 6 mL vials and stored in the freezer (-70°C) overnight for protein precipitation. Following overnight precipitations, samples were centrifuged at 3,000 rpm for 10 min to pellet proteins. Supernatants were transferred into clean 6 mL vials and evaporated to dryness using a TurboVap concentrator system. Samples were reconstituted using 600 μL 20% acetonitrile in water, briefly vortexed to resuspend, then aliquoted for LC-MS/MS analysis. Controls incubations also included “No drug control” and “no cell control” samples treated in a similar manner as test article samples.\nMetabolite profiling and identification experiments were conducted by LC-MS/MS, composed of an HPLC system consisting of an Agilent Technologies 1200 Series Model G1322A Degasser, Agilent Technologies 1200 Series Model G1312A Binary Pump, Shimadzu HTc autosampler, and Valco Model E60 Flow Diversion Valve, and coupled to an API 4000 mass spectrometer. Separations were accomplished on a Gemini C18 column (150 × 2.0 mm, 5-μm particles; Phenomenex Inc., Torrance, CA), preceded by a SecurityGuard C18 guard column (4.0 × 2.0 mm; Phenomenex Inc.). A two-component mobile phase, consisted of a linear gradient of water containing 0.5% formic acid (v/v) and methanol:acetonitrile (1:1, v/v) containing 0.5% formic acid (v/v), was pumped at 0.3 mL/min. The first 4 min of flow was diverted away from the mass spectrometer. Analysis of the positive control samples was conducted with an HPLC system consisting of two Shimadzu LC-10ATvp pumps and a LEAP Pal autosampler. Separations were accomplished on a Luna C8(2) column (50 × 2.0 mm, 3-μm particles; Phenomenex Inc., Torrance, CA), preceded by a SecurityGuard C18 column (4.0 × 2.0 mm; Phenomenex Inc.). Separation was accomplished with a gradient of water containing 0.2% formic acid and 0.012% NH4OH (v/v) versus acetonitrile at an initial rate of 0.7 mL/min. An API 4000 QTrap mass spectrometer (AB Sciex, Foster City, CA) was used for analysis of positive control samples. Each mass spectrometer used was equipped with an electrospray ionization source and operated in the positive ionization mode. Metabolite identification experiments were performed by recording full scan mass spectral data (Q1MS) for all samples, and selected samples were analyzed to obtain product ion spectra (MS/MS) of test article metabolites identified in the full scan mass spectral data."}}, "data": [{"smiles": "CCCCCCCCc1ccc(CCC(CO)(CO)NC(=O)CC[P+](c2ccccc2)(c2ccccc2)c2ccccc2)cc1", "note": "[FTY720-Mitoxy, N-(1-hydroxy-2-(hydroxymethyl)-4-(4-octylphenyl)butan-2-yl)-3’-triphenylphosphoniumpropanamide]", "values": [{"measurement": "increase of PP2A activity in mouse adrenal gland", "setting": "PP2A", "value": "~ 2 fold"}, {"measurement": "increase of PP2A activity in adrenal gland", "setting": "PP2A; single oral dose (FTY720-C2 1 mg/kg, FTY720-Mitoxy 2 mg/kg)", "value": "no stimulating effect"}, {"measurement": "Source (peak identified in rat hepatocytes)", "setting": "[1]; FTY720-Mitoxy incubation, Table 5", "value": "R"}, {"measurement": "phosphorylated metabolites", "setting": "[1]", "value": "never detected"}, {"measurement": "parent peak after 2 hr incubation", "setting": "[1]", "value": "most FTY720-Mitoxy was still unchanged"}]}, {"smiles": "CCCCCCCCc1ccc(CCC(CO)(CO)NC(C)=O)cc1", "note": "[FTY720-C2, N-(1-hydroxy-2-(hydroxymethyl)-4-(4-octylphenyl)butan-2-yl)acetamide]", "values": [{"measurement": "increase of PP2A activity in mouse adrenal gland", "setting": "PP2A", "value": "~ 2 fold"}, {"measurement": "increase of PP2A activity in adrenal gland", "setting": "PP2A; single IV dose (FTY720-C2 1 mg/kg, FTY720-Mitoxy 2 mg/kg)", "value": 2, "unit": "fold"}, {"measurement": "Source (peak identified in rat hepatocytes)", "setting": "[1]; FTY720-C2 incubation, Table 4", "value": "R"}, {"measurement": "phosphorylated metabolites", "setting": "[1]", "value": "never detected"}, {"measurement": "parent peak after 2 hr incubation", "setting": "[1]", "value": "drastically diminished"}]}]}
